Source: patent publication US20080267942A1, “BENZAZEPIN-2(1H)-ONE DERIVATIVES” (Pfizer Limited, priority 2006, published 2008)

What was measured:
[1] = target: T1, bovine beta-2 adrenoceptor (Bos taurus, UniProt Q28044); assay: cAMP assay in CHO cells transfected with the bovine beta-2 adrenoceptor (DiscoveRx Hit Hunter cAMP II); type: cell-based; conditions: CHO cells transfected with bovine beta-2 adrenoceptor, 30 minutes incubation with compound
T1 construct: expressed in transfected cells; host or cells: CHO cells
Outline: (§1)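 CHO cells expressing porcine or bovine β2 receptor pre-incubated 30 min with 0.5 mM IBMX, then exposed to compound (5×10^−12 to 10^−5 M) for 30 min at 37 °C. cAMP read by enzyme-fragment complementation kit; duplicate samples, EC50 from curve fitting.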

[2] = target: T2, porcine beta-2 adrenoceptor (Sus scrofa, UniProt Q28997); assay: cAMP assay in CHO cells transfected with the porcine beta-2 adrenoceptor (DiscoveRx Hit Hunter cAMP II); type: cell-based; conditions: CHO cells transfected with porcine beta-2 adrenoceptor, 30 minutes incubation with compound
T2 construct: expressed in transfected cells; host or cells: CHO cells
Outline: as §1

T1 sequence (Q28044 whole entry): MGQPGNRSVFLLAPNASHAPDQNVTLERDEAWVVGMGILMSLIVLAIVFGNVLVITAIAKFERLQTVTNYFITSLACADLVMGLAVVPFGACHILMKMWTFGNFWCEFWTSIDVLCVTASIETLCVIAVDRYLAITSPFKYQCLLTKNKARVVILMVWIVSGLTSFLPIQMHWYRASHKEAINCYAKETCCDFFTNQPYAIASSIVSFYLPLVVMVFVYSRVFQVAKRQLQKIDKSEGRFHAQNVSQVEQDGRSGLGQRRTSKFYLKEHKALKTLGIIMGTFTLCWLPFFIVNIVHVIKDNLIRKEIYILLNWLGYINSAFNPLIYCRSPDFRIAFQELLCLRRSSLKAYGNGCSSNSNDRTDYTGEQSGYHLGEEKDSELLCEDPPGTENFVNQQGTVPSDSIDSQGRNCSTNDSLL
T2 sequence (Q28997 whole entry): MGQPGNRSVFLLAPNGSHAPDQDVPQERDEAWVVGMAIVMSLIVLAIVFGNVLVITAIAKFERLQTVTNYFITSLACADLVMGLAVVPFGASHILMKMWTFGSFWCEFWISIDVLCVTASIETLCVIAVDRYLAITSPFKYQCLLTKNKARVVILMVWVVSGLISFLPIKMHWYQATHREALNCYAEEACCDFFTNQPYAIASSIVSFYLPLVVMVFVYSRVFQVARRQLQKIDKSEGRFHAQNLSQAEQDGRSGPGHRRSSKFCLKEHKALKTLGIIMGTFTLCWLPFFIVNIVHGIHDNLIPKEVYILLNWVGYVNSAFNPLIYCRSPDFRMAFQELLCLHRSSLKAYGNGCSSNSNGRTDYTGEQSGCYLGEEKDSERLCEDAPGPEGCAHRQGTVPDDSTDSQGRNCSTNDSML

Structure (SMILES) | EC50 [1] | EC50 [2]
CC(Cc1ccco1)NC1CCn2c(=O)[nH]c3cccc(c32)C1O (centres unmarked) [Example 11, 6-{[2-(2-Furyl)-1-methylethyl]amino}-7-hydroxy-4,5,6,7-tetrahydroimidazo[4,5,1-jk][1]benzazepin-2(1H)-one] | 108 nM | 64 nM
CC(CCc1nc2ccccc2[nH]1)NC1CCn2c(=O)[nH]c3cccc(c32)C1O (centres unmarked) [Example 12, 6-{[3-(1H-Benzimidazol-2-yl)-1-methylpropyl]amino}-7-hydroxy-4,5,6,7-tetrahydroimidazo[4,5,1-jk][1]benzazepin-2(1H)-one] | 34 nM | 53 nM
CC(CCc1ccccn1)NC1CCn2c(=O)[nH]c3cccc(c32)C1O (centres unmarked) [Example 13, 7-Hydroxy-6-[(1-methyl-3-pyridin-2-ylpropyl)amino]-4,5,6,7-tetrahydroimidazo[4,5,1-jk][1]benzazepin-2(1H)-one] | 356 nM | 184 nM
CC(CCc1cn(C)c2ccccc12)NC1CCn2c(=O)[nH]c3cccc(c32)C1O (centres unmarked) [Example 14a, 7-Hydroxy-6-{[1-methyl-3-(1-methyl-1H-indol-3-yl)propyl]amino}-4,5,6,7-tetrahydroimidazo[4,5,1-jk][1]benzazepin-2(1H)-one] | 18 nM | 26 nM
CC(CCn1cccn1)NC1CCn2c(=O)[nH]c3cccc(c32)C1O (centres unmarked) [Example 15, 7-Hydroxy-6-{[1-methyl-3-(1H-pyrazol-1-yl)propyl]amino}-4,5,6,7-tetrahydroimidazo[4,5,1-jk][1]benzazepin-2(1H)-one] | 161 nM | 98 nM
O=c1[nH]c2cccc3c2n1CCC(NCCCc1c[nH]c2ccccc12)C3O (centres unmarked) [Example 19, 7-Hydroxy-6-{[3-(1H-indol-3-yl)propyl]amino}-4,5,6,7-tetrahydroimidazo[4,5,1-jk][1]benzazeopin-2(1H)-one] | 50 nM | 65 nM
CC(CCc1nccs1)NC1CCn2c(=O)[nH]c3cccc(c32)C1O (centres unmarked) [Example 24a, 7-Hydroxy-6-{[1-methyl-3-(1,3-thiazol-2-yl)propyl]amino}-4,5,6,7-tetrahydroimidazo[4,5,1-jk][1]benzazepin-2(1H)-one] | 409 nM | 464 nM
CC(CCc1c[nH]c2ccncc12)NC1CCn2c(=O)[nH]c3cccc(c32)C1O (centres unmarked) [Example 31a, 7-Hydroxy-6-{[1-methyl-3-(1H-pyrrolo[3,2-c]pyridin-3-yl)propyl]amino}-4,5,6,7-tetrahydroimidazo[4,5,1-jk][1]benzazepin-2(1H)-one] | 197 nM | 146 nM
CC(CCc1c[nH]c2cnccc12)NC1CCn2c(=O)[nH]c3cccc(c32)C1O (centres unmarked) [Example 32a, 7-Hydroxy-6-{[1-methyl-3-(1H-pyrrolo[2,3-c]pyridin-3-yl)propyl]amino}-4,5,6,7-tetrahydroimidazo[4,5,1-jk][1]benzazepin-2(1H)-one] | 52 nM | 92 nM
CC(CCc1ccc[nH]c1=O)NC1CCn2c(=O)[nH]c3cccc(c32)C1O (centres unmarked) [Example 36, 7-Hydroxy-6-{[1-methyl-3-(2-oxo-1,2-dihydropyridin-3-yl)propyl]amino}-4,5,6,7-tetrahydroimidazo[4,5,1-jk][1]benzazepin-2(1H)-one] | 59 nM | 56 nM
Cc1c(CC[C@@H](C)N[C@@H]2CCn3c(=O)[nH]c4cccc(c43)[C@H]2O)cnn1C [Example 53, (6R,7R)-6-{[(1R)-3-(1,5-Dimethyl-1H-pyrazol-4-yl)-1-methylpropyl]amino}-7-hydroxy-4,5,6,7-tetrahydroimidazo[4,5,1-jk][1]benzazepin-2(1H)-one] | 2 nM | 2.8 nM
C[C@H](CCc1cnco1)N[C@@H]1CCn2c(=O)[nH]c3cccc(c32)[C@H]1O [Example 66, (6R,7R)-7-hydroxy-6-{[(1R)-1-methyl-3-(1,3-oxazol-5-yl)propyl]amino}-4,5,6,7-tetrahydroimidazo[4,5,1-jk][1]benzazepin-2(1H)-one] | 18.7 nM | 6.2 nM
COc1ncc(CC[C@@H](C)N[C@@H]2CCn3c(=O)[nH]c4cccc(c43)[C@H]2O)s1 [Example 67, (6R,7R)-7-hydroxy-6-{[(1R)-3-(2-methoxy-1,3-thiazol-5-yl)-1-methylpropyl]amino}-4,5,6,7-tetrahydroimidazo[4,5,1-jk][1]benzazepin-2(1H)-one] | 2.7 nM | 2.7 nM
